Laboratory results from ChEMBL document CHEMBL4651402, “Screening of ~5500 FDA-approved drugs and clinical candidates for anti-SARS-CoV-2 activity” (2021).
Where a name gives a salt, the structure may show the parent alone.

System: SARS-CoV-2
Assay: microbe, parasite or virus in culture
Details: Severe acute respiratory syndrome coronavirus 2, Vero C1008, 48 h

Structure (SMILES) | IC50 | IC50 (read-out: pIC50 (converted))
CCCC(=O)Nc1ncnc2c1ncn2[C@@H]1O[C@@H]2OP(=O)(O)OC[C@H]2[C@H]1OC(=O)CCC | > 20 µM | > 20 µM
CC(=O)O[C@]1(C(C)=O)CCC2C3C[C@H](C)C4=CC(=O)CCC4(C)C3CCC21C (stereo partly specified) | > 20 µM | > 20 µM
CC(=O)Oc1cc(OC(C)=O)c2c(c1)O[C@H](c1ccc(OC(C)=O)c(OC(C)=O)c1)[C@@H](OC(C)=O)C2 [CATECHIN PENTAACETATE] | > 20 µM | > 20 µM
CN1CCN2c3ccccc3Cn3cccc3[C@@H]2C1 | > 20 µM | > 20 µM
CCOC(=O)c1cncn1[C@@H](C)c1ccccc1 [S-ETOMIDATE] | > 20 µM | > 20 µM
CC(O)c1cc(C(=O)N[C@@H](C)Cn2ccc(-c3ccc(C#N)c(Cl)c3)n2)n[nH]1 (stereo partly specified) [DAROLUTAMIDE] | > 20 µM | > 20 µM
c1ccc2c(c1)OCC(CN1CCCCC1)O2 (stereo unspecified) [PIPEROXAN] | > 20 µM | > 20 µM
C[C@H]1N=C(N)O[C@@H]1c1ccccc1 | > 20 µM | > 20 µM
CNC(=O)c1ccc(N2C(=S)N(c3cnc(C#N)c(C(F)(F)F)c3)C(=O)C23CCC3)cc1F [APALUTAMIDE] | > 20 µM | > 20 µM
Cc1ccc(C(=O)c2ccc(CC(=O)O)n2C)cc1 [TOLMETIN] | > 20 µM | > 20 µM
CC1=CC(=O)C(C(C)C)=CC1=O [THYMOQUINONE] | > 20 µM | > 20 µM
O=C1CN(/N=C/c2ncc(-c3ccc(Br)cc3)o2)C(=O)N1 [AZUMOLENE] | > 20 µM | > 20 µM
CC(C)(CO)C(O)C(=O)NCCCC(=O)O (stereo unspecified) | > 20 µM | > 20 µM
Cn1cc(Nc2nccc(N3CC4CCC(C3)N4C(=O)[C@@H]3CC3(F)F)n2)cn1 | > 20 µM | > 20 µM
CCN(CC)CCOC(=O)C(c1ccccc1)C1(O)CCCC1 (stereo unspecified) | > 20 µM | > 20 µM
O=C1CN2CCOC2(c2ccccc2Cl)c2cc(Cl)ccc2N1 (stereo unspecified) [CLOXAZOLAM] | > 20 µM | > 20 µM
CN(C)c1ccc(-c2ccc3cc(OC[C@@H](O)CF)ccc3n2)cc1 | > 20 µM | > 20 µM
O=C(CCCCCCNC(=O)c1cnc(N(c2ccccc2)c2ccccc2)nc1)NO [RICOLINOSTAT] | > 20 µM | > 20 µM
CC1NCCc2c1[nH]c1ccccc21 (stereo unspecified) [TETRAHYDROHARMAN] | > 20 µM | > 20 µM
CC[N+](C)(CC)CCOC(=O)C(O)(c1ccccc1)c1ccccc1 [METHYLBENACTYZIUM] | > 20 µM | > 20 µM
C[C@@H](CO)NC(=O)[C@@H]1C=C2c3cccc4[nH]cc(c34)C[C@H]2N(C)C1 [ERGONOVINE] | > 20 µM | > 20 µM

Structure (SMILES) | IC50 | IC50 (read-out: pIC50 (converted))
Clc1ccc(COC(Cn2ccnc2)c2ccc(Cl)cc2Cl)cc1 (stereo unspecified) [ECONAZOLE] | > 20 µM | > 20 µM
NCCc1ccc(O)c(O)c1 [DOPAMINE] | > 20 µM | > 20 µM
CC(=O)[C@H]1CC[C@H]2[C@@H]3CCC4=CC(=O)CC[C@]4(C)[C@H]3CC[C@]12C [PROGESTERONE] | > 20 µM | > 20 µM
C[C@H](CCC(=O)NCCS(=O)(=O)O)[C@H]1CC[C@H]2[C@@H]3[C@@H](O)CC4C[C@H](O)CC[C@]4(C)[C@H]3CC[C@]12C (stereo partly specified) | > 20 µM | > 20 µM
CC(=O)c1ccc(S(=O)(=O)NC(=O)NC2CCCCC2)cc1 [ACETOHEXAMIDE] | > 20 µM | > 20 µM
CN(C)CCN1C(=O)c2ccccc2N(C)c2ccccc21 [DIBENZEPIN] | > 20 µM | > 20 µM
CC(C(=O)O)c1cccc2c(-c3ccccc3)coc12 (stereo unspecified) [FURAPROFEN] | > 20 µM | > 20 µM
CN(C/C=C/c1ccccc1)Cc1cccc2ccccc12 [NAFTIFINE] | > 20 µM | > 20 µM
C[C@]12CCC(=O)C=C1CC[C@@H]1[C@@H]2C(=O)C[C@]2(C)C(=O)CC[C@@H]12 [ADRENOTERONE] | > 20 µM | > 20 µM
CC(C)c1cc(-c2n[nH]c(=O)n2-c2ccc3c(ccn3C)c2)c(O)cc1O [GANETESPIB] | > 20 µM | > 20 µM
Cc1nc(O)c2cc(CN(C)c3ccc(C(=O)NC(CCC(=O)O)C(=O)O)s3)ccc2n1 (stereo unspecified) | > 20 µM | > 20 µM
CC(NCCc1ccc(O)cc1)C(O)c1ccc(O)cc1 (stereo unspecified) [RITODRINE HYDROCHLORIDE] | > 20 µM | > 20 µM
CN(C)[C@@H](c1cccnc1)C1COCOC1 [DOXPICOMINE] | > 20 µM | > 20 µM
Nc1cccc2c1C(=O)c1cccc(N)c1C2=O | > 20 µM | > 20 µM
CNC(=O)N1CC(Oc2cccc(C(F)(F)F)c2)C1 [FLUZINAMIDE] | > 20 µM | > 20 µM
C#C[C@]1(O)CC[C@H]2[C@@H]3CCC4=CC(=O)CC[C@@H]4[C@H]3CC[C@@]21C [NORETHINDRONE] | > 20 µM | > 20 µM
CCNCC(O)c1cccc(O)c1 (stereo unspecified) [ETILEFRINE] | > 20 µM | > 20 µM
CN(C)C(=O)Oc1cccc([N+](C)(C)C)c1 [NEOSTIGMINE] | > 20 µM | > 20 µM
O=C(C[n+]1ccn(CC(OCc2ccc(Cl)cc2Cl)c2ccc(Cl)cc2Cl)c1)c1ccc(F)cc1 (stereo unspecified) [FLUDAZONIUM] | > 20 µM | > 20 µM
CCOC(=O)C1=C(C)NC(C)=C(C(=O)OCC)C1c1cccnc1SC [MESUDIPINE] | > 20 µM | > 20 µM
c1cnc(N2CCN(Cc3ccc4c(c3)OCO4)CC2)nc1 [PIRIBEDIL] | > 20 µM | > 20 µM

Structure (SMILES) | IC50 | IC50 (read-out: pIC50 (converted))
CC[N+](C)(CC)CCOC(=O)C(O)(c1cccs1)C1CCCC1 (stereo unspecified) [PENTHIENATE] | > 20 µM | > 20 µM
CCNC(=O)/C=C/c1cccc(Br)c1 [CINROMIDE] | > 20 µM | > 20 µM
N=C(NCCCCCCNC(=N)NC(=N)Nc1ccc(Cl)cc1)NC(=N)Nc1ccc(Cl)cc1 [CHLORHEXIDINE] | > 20 µM | > 20 µM
CCN(CC)CCNc1ccc(CO)c2sc3ccccc3c(=O)c12 [HYCANTHONE] | > 20 µM | > 20 µM
N=c1ccn2c(n1)O[C@H]1[C@H](O)[C@@H](CO)O[C@H]12 [ANCITABINE] | > 20 µM | > 20 µM
Clc1cccc(C(c2ccc3[nH]cnc3c2)n2ccnc2)c1 (stereo unspecified) [LIAROZOLE] | > 20 µM | > 20 µM
CCC(C(=O)O)c1ccc(-c2ccccc2)cc1 (stereo unspecified) [XENBUCIN] | > 20 µM | > 20 µM
NC1CCN(c2cccc(Cl)n2)CC1 | > 20 µM | > 20 µM
COc1ccc(C(=O)Nc2ccccc2CCC2CCCCN2C)cc1 (stereo unspecified) [ENCAINIDE] | > 20 µM | > 20 µM
CC(C)NC[C@@H](C(=O)N1CCN(c2ncnc3c2[C@H](C)C[C@H]3O)CC1)c1ccc(Cl)cc1 [IPATASERTIB] | > 20 µM | > 20 µM
CN(c1nc2ccccc2s1)C1CCN(CC(O)COc2ccc(F)cc2)CC1 (stereo unspecified) [SABELUZOLE] | > 20 µM | > 20 µM
COC1COCCC1N[C@@H]1CC[C@@](C(=O)N2CCc3ncc(C(F)(F)F)cc3C2)(C(C)C)C1 (stereo partly specified) | > 20 µM | > 20 µM
O=C(O)CNC(=O)c1ccccc1 [HIPPURIC ACID] | > 20 µM | > 20 µM
Nc1ncn([C@@H]2O[C@H](CO)[C@@H](O)[C@H]2O)c(=O)n1 [AZACITIDINE] | > 20 µM | > 20 µM
CCn1cc(C(=O)O)c(=O)c2cnc(N3CCCC3)nc21 [PIROMIDIC ACID] | > 20 µM | > 20 µM
CC(=O)O[C@]1(C(C)=O)CCC2C3CCC4=CC(=O)CCC4C3C(C)CC21C (stereo partly specified) | > 20 µM | > 20 µM
CC(=O)[C@H]1CC[C@H]2[C@@H]3C[C@H](C)C4=CC(=O)CC[C@]4(C)[C@H]3[C@@H](O)C[C@]12C [MEDRYSONE] | > 20 µM | > 20 µM
CC(=O)N(CC(O)CO)c1c(I)c(C(=O)NCC(O)CO)c(I)c(C(=O)NCC(O)CO)c1I (stereo unspecified) [IOHEXOL] | > 20 µM | > 20 µM
COc1ccccc1OCC(O)CO (stereo unspecified) [GUAIFENESIN] | > 20 µM | > 20 µM
C=CCn1c(=O)c2cnc(Nc3ccc(N4CCN(C)CC4)cc3)nc2n1-c1cccc(C(C)(C)O)n1 [ADAVOSERTIB] | > 20 µM | > 20 µM
O=c1oc2cc(O)ccc2c2ccc(O)cc12 | > 20 µM | > 20 µM
